According to PubChem BioAssay AID270 (DTP/NCI, 2004):
Several values for one entry are separate records, joined by “and”; a condition that tells them apart may be missing. Equal entries are not always repeated. Records with an inconclusive call do not appear.

Test system: BDF1 mice, s.c. Lewis lung carcinoma, T/C %
Assay: NCI In Vivo Anticancer Drug Screen. Data for tumor model Lewis Lung Carcinoma (subcutaneous) in B6D2F1 (BDF1) mice
Method in brief: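 The value reflects a ratio in which the treated cohort's survival time or tumour size is compared against mice receiving only vehicle.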

[1] = endpoint: mean tumor weight, dose: 12.5 mg/kg/injection, schedule: Q01DX011 (ip), vehicle: saline, higher = larger tumour
[2] = endpoint: mean tumor weight, dose: 25.0 mg/kg/injection, schedule: Q01DX011 (ip), vehicle: saline, higher = larger tumour
[3] = endpoint: mean tumor weight, dose: 50.0 mg/kg/injection, schedule: Q01DX011 (ip), vehicle: saline, higher = larger tumour
[4] = endpoint: mean tumor weight, dose: 100.0 mg/kg/injection, schedule: Q01DX011 (ip), vehicle: saline, higher = larger tumour
[5] = endpoint: median survival time, dose: 1.25 mg/kg/injection, schedule: Q01DX009 (ip), vehicle: Klucel (hydroxypropylcellulose) (HPC), higher = longer survival
[6] = endpoint: median survival time, dose: 2.5 mg/kg/injection, schedule: Q01DX009 (ip), vehicle: Klucel (hydroxypropylcellulose) (HPC), higher = longer survival
[7] = endpoint: median survival time, dose: 5.0 mg/kg/injection, schedule: Q01DX009 (ip), vehicle: Klucel (hydroxypropylcellulose) (HPC), higher = longer survival
[8] = endpoint: median survival time, dose: 25.0 mg/kg/injection, schedule: Q01DX009 (ip), vehicle: saline, higher = longer survival
[9] = endpoint: median survival time, dose: 50.0 mg/kg/injection, schedule: Q01DX009 (ip), vehicle: saline, higher = longer survival

SMILES: CC[C@H](c1ccc(O)cc1)[C@@H](CC)c1ccc(O)cc1
- T/C [1]: 92 % of control
- T/C [2]: 82 % of control
- T/C [3]: 47 % of control
- T/C [4]: 16 % of control

SMILES: O=C1N[C@@H]([C@H]2CC[C@H](Cl)CN2)C(=O)N[C@H]1[C@H]1CC[C@H](Cl)CN1
- T/C (endpoint: median survival time, dose: 2.7 mg/kg/injection, schedule: Q01DX009 (ip), vehicle: saline, higher = longer survival): 102 % of control
- T/C (endpoint: median survival time, dose: 4.4 mg/kg/injection, schedule: Q04DX003 (ip), vehicle: saline, higher = longer survival): 99 % of control
- T/C (endpoint: median survival time, dose: 6.5 mg/kg/injection, schedule: Q04DX003 (ip), vehicle: saline, higher = longer survival): 105 % of control
- T/C (endpoint: median survival time, dose: 9.0 mg/kg/injection, schedule: Q01DX001 (ip), vehicle: saline, higher = longer survival): 91 % of control
- T/C (endpoint: median survival time, dose: 13.0 mg/kg/injection, schedule: Q01DX001 (ip), vehicle: saline, higher = longer survival): 101 % of control
- T/C (endpoint: median survival time, dose: 20.0 mg/kg/injection, schedule: Q01DX001 (ip), vehicle: saline, higher = longer survival): 100 % of control

SMILES: CC(=O)[O][Hg][c]1c(C)c(C)c(C)c(C)c1C
- T/C (endpoint: median survival time, dose: 0.62 mg/kg/injection, schedule: Q01DX009 (ip), vehicle: Klucel (hydroxypropylcellulose) (HPC), higher = longer survival): 93 % of control
- T/C [5]: 93 % of control
- T/C [6]: 100 % of control
- T/C [7]: 105 % of control
- T/C (endpoint: median survival time, dose: 6.0 mg/kg/injection, schedule: Q01DX009 (ip), vehicle: Klucel (hydroxypropylcellulose) (HPC), higher = longer survival): 92 % of control
- T/C (endpoint: median survival time, dose: 6.25 mg/kg/injection, schedule: Q01DX009 (ip), vehicle: Klucel (hydroxypropylcellulose) (HPC), higher = longer survival): 92 % of control

SMILES: NC(Cc1c[nH]c2ccc(N(CCCl)CCCl)cc12)C(=O)O (centres undefined)
- T/C (endpoint: mean tumor weight, dose: 0.13 mg/kg/injection, schedule: Q01DX011 (ip), vehicle: saline, higher = larger tumour): 90 % of control
- T/C (endpoint: mean tumor weight, dose: 0.5 mg/kg/injection, schedule: Q01DX011 (ip), vehicle: saline, higher = larger tumour): 90 % of control
- T/C (endpoint: mean tumor weight, dose: 1.0 mg/kg/injection, schedule: Q01DX011 (ip), vehicle: saline, higher = larger tumour): 98 % of control
- T/C (endpoint: mean tumor weight, dose: 2.0 mg/kg/injection, schedule: Q01DX011 (ip), vehicle: saline, higher = larger tumour): 102 % of control

SMILES: O=c1[nH]c(=O)n(C2CC(O)C(CO)O2)cc1F (centres undefined)
- T/C (endpoint: mean tumor weight, dose: 10.0 mg/kg/injection, schedule: Q01DX011 (ip), vehicle: saline, higher = larger tumour): 82 % of control
- T/C (endpoint: mean tumor weight, dose: 20.0 mg/kg/injection, schedule: Q01DX011 (ip), vehicle: saline, higher = larger tumour): 57 % of control
- T/C (endpoint: mean tumor weight, dose: 26.0 mg/kg/injection, schedule: Q01DX011 (ip), vehicle: saline, higher = larger tumour): 45 % of control
- T/C (endpoint: mean tumor weight, dose: 40.0 mg/kg/injection, schedule: Q01DX011 (ip), vehicle: other, higher = larger tumour): 17 % of control and 23 % of control
- T/C (endpoint: mean tumor weight, dose: 40.0 mg/kg/injection, schedule: Q01DX011 (ip), vehicle: saline, higher = larger tumour): 25 % of control and 27 % of control
- T/C (endpoint: mean tumor weight, dose: 60.0 mg/kg/injection, schedule: Q01DX011 (ip), vehicle: saline, higher = larger tumour): 17 % of control and 23 % of control
- T/C (endpoint: mean tumor weight, dose: 80.0 mg/kg/injection, schedule: Q01DX011 (ip), vehicle: other, higher = larger tumour): 10 % of control
- T/C (endpoint: mean tumor weight, dose: 80.0 mg/kg/injection, schedule: Q01DX011 (ip), vehicle: saline, higher = larger tumour): 18 % of control
- T/C (endpoint: mean tumor weight, dose: 120.0 mg/kg/injection, schedule: Q01DX011 (ip), vehicle: saline, higher = larger tumour): 1 % of control
- T/C (endpoint: mean tumor weight, dose: 160.0 mg/kg/injection, schedule: Q01DX011 (ip), vehicle: other, higher = larger tumour): 4 % of control
- T/C [8]: 90 % of control and 110 % of control and 114 % of control
- T/C (endpoint: median survival time, dose: 36.0 mg/kg/injection, schedule: Q01DX011 (ip), vehicle: saline, higher = longer survival): 116 % of control
- T/C (endpoint: median survival time, dose: 50.0 mg/kg/injection, schedule: Q01DX009 (ip), vehicle: saline with Tween-80, higher = longer survival): 116 % of control
- T/C [9]: 92 % of control and 98 % of control
- T/C (endpoint: median survival time, dose: 80.0 mg/kg/injection, schedule: Q01DX011 (ip), vehicle: saline, higher = longer survival): 104 % of control
- T/C (endpoint: median survival time, dose: 100.0 mg/kg/injection, schedule: Q01DX009 (ip), vehicle: saline with Tween-80, higher = longer survival): 95 % of control
- T/C (endpoint: median survival time, dose: 119.0 mg/kg/injection, schedule: Q01DX011 (ip), vehicle: saline, higher = longer survival): 94 % of control
- T/C (endpoint: median tumor weight (est.), dose: 25.0 mg/kg/injection, schedule: Q01DX009 (ip), vehicle: saline with Tween-80, higher = larger tumour): 72 % of control
- T/C (endpoint: median tumor weight (est.), dose: 50.0 mg/kg/injection, schedule: Q01DX009 (ip), vehicle: saline with Tween-80, higher = larger tumour): 66 % of control
- T/C (endpoint: median tumor weight (est.), dose: 100.0 mg/kg/injection, schedule: Q01DX009 (ip), vehicle: saline with Tween-80, higher = larger tumour): 32 % of control

SMILES: CCn1cnc2c(SC)nc(N)nc21
- T/C (endpoint: mean tumor weight, dose: 100.0 mg/kg/injection, schedule: Q01DX011 (ip), vehicle: other, higher = larger tumour): 50 % of control
- T/C (endpoint: mean tumor weight, dose: 250.0 mg/kg/injection, schedule: Q01DX011 (ip), vehicle: other, higher = larger tumour): 60 % of control
- T/C (endpoint: mean tumor weight, dose: 500.0 mg/kg/injection, schedule: Q01DX011 (ip), vehicle: other, higher = larger tumour): 67 % of control
- T/C (endpoint: mean tumor weight, dose: 1000.0 mg/kg/injection, schedule: Q01DX011 (ip), vehicle: other, higher = larger tumour): 42 % of control

SMILES: COc1ccc(-c2cc(=O)c3ccccc3o2)c(OC)c1OC
- T/C (endpoint: mean tumor weight, dose: 50.0 mg/kg/injection, schedule: Q01DX010 (ip), vehicle: saline, higher = larger tumour): 95 % of control
- T/C (endpoint: mean tumor weight, dose: 100.0 mg/kg/injection, schedule: Q01DX010 (ip), vehicle: saline, higher = larger tumour): 101 % of control
- T/C (endpoint: mean tumor weight, dose: 200.0 mg/kg/injection, schedule: Q01DX010 (ip), vehicle: saline, higher = larger tumour): 83 % of control
- T/C (endpoint: mean tumor weight, dose: 400.0 mg/kg/injection, schedule: Q01DX010 (ip), vehicle: saline, higher = larger tumour): 99 % of control

SMILES: Oc1ccc(O)c(/C=N/NC(=S)NC2CC3CC2C2C=CCC32)c1 (centres undefined)
- T/C (endpoint: median survival time, dose: 25.0 mg/kg/injection, schedule: Q01DX009 (ip), vehicle: olive oil, sesame oil, peanut oil, higher = longer survival): 87 % of control
- T/C (endpoint: median survival time, dose: 50.0 mg/kg/injection, schedule: Q01DX009 (ip), vehicle: olive oil, sesame oil, peanut oil, higher = longer survival): 86 % of control

SMILES: CS(=O)(=O)OCCC(=O)N1CCN(C(=O)CCOS(C)(=O)=O)CC1
- T/C [1]: 85 % of control
- T/C [2]: 66 % of control
- T/C [3]: 85 % of control
- T/C [4]: 46 % of control
- T/C (endpoint: median survival time, dose: 1.56 mg/kg/injection, schedule: Q01DX009 (ip), vehicle: saline, higher = longer survival): 109 % of control
- T/C (endpoint: median survival time, dose: 3.12 mg/kg/injection, schedule: Q01DX009 (ip), vehicle: saline, higher = longer survival): 103 % of control
- T/C (endpoint: median survival time, dose: 6.25 mg/kg/injection, schedule: Q01DX009 (ip), vehicle: saline, higher = longer survival): 106 % of control
- T/C (endpoint: median survival time, dose: 12.5 mg/kg/injection, schedule: Q01DX009 (ip), vehicle: saline, higher = longer survival): 103 % of control
- T/C [8]: 102 % of control
- T/C [9]: 114 % of control

SMILES: IP(c1ccccc1)(c1ccccc1)(c1ccccc1)N1C2CCCCC21 (centres undefined)
- T/C (endpoint: median survival time, dose: 0.3 mg/kg/injection, schedule: Q01DX009 (ip), vehicle: Klucel (hydroxypropylcellulose) (HPC), higher = longer survival): 94 % of control
- T/C (endpoint: median survival time, dose: 0.6 mg/kg/injection, schedule: Q01DX009 (ip), vehicle: Klucel (hydroxypropylcellulose) (HPC), higher = longer survival): 103 % of control
- T/C (endpoint: median survival time, dose: 38.0 micrograms/kg/injection, schedule: Q01DX009 (ip), vehicle: Klucel (hydroxypropylcellulose) (HPC), higher = longer survival): 94 % of control
- T/C (endpoint: median survival time, dose: 75.0 micrograms/kg/injection, schedule: Q01DX009 (ip), vehicle: Klucel (hydroxypropylcellulose) (HPC), higher = longer survival): 91 % of control
- T/C (endpoint: median survival time, dose: 150.0 micrograms/kg/injection, schedule: Q01DX009 (ip), vehicle: Klucel (hydroxypropylcellulose) (HPC), higher = longer survival): 104 % of control
- T/C (endpoint: median survival time, dose: 300.0 micrograms/kg/injection, schedule: Q01DX009 (ip), vehicle: Klucel (hydroxypropylcellulose) (HPC), higher = longer survival): 91 % of control

SMILES: CN(CCC(=O)c1ccccc1)CCC(=O)c1ccccc1
- T/C (endpoint: mean tumor weight, dose: 55.0 mg/kg/injection, schedule: Q01DX011 (ip), vehicle: other, higher = larger tumour): 91 % of control
- T/C (endpoint: mean tumor weight, dose: 83.0 mg/kg/injection, schedule: Q01DX011 (ip), vehicle: other, higher = larger tumour): 122 % of control

SMILES: COc1cc(NS(C)(=O)=O)ccc1Nc1c2ccc(Cl)cc2nc2c(OC)cccc12
- T/C (endpoint: median survival time, dose: 2.3 mg/kg/injection, schedule: Q01DX009 (ip), vehicle: other, higher = longer survival): 118 % of control

SMILES: CC[C@@]1(O)C(=O)OCc2c1cc1n(c2=O)Cc2cc3c(OC)cccc3nc2-1
- T/C (endpoint: median survival time, dose: 0.12 mg/kg/injection, schedule: Q01DX009 (ip), vehicle: Klucel (hydroxypropylcellulose) (HPC), higher = longer survival): 119 % of control
- T/C (endpoint: median survival time, dose: 0.25 mg/kg/injection, schedule: Q01DX009 (ip), vehicle: Klucel (hydroxypropylcellulose) (HPC), higher = longer survival): 197 % of control
- T/C (endpoint: median survival time, dose: 0.51 mg/kg/injection, schedule: Q01DX009 (ip), vehicle: Klucel (hydroxypropylcellulose) (HPC), higher = longer survival): 198 % of control
- T/C (endpoint: median survival time, dose: 1.0 mg/kg/injection, schedule: Q01DX009 (ip), vehicle: Klucel (hydroxypropylcellulose) (HPC), higher = longer survival): 198 % of control

SMILES: COC(=O)[C@@H]1[C@@H](O)[C@H](OC(=O)c2cc(OC)c(OC)c(OC)c2)C[C@@H]2CN3CCc4c([nH]c5ccccc45)[C@H]3C[C@@H]21
- T/C [5]: 108 % of control
- T/C [6]: 122 % of control
- T/C [7]: 88 % of control

SMILES: O=C1c2ccccc2CCc2ccccc21
- T/C (endpoint: mean tumor weight, dose: 133.0 mg/kg/injection, schedule: Q01DX011 (ip), vehicle: other, higher = larger tumour): 91 % of control
- T/C (endpoint: mean tumor weight, dose: 200.0 mg/kg/injection, schedule: Q01DX011 (ip), vehicle: other, higher = larger tumour): 173 % of control
- T/C (endpoint: mean tumor weight, dose: 450.0 mg/kg/injection, schedule: Q01DX011 (ip), vehicle: other, higher = larger tumour): 74 % of control
